Results on 1 molecule are retold here after patent US10351915B2 (Berg LLC, priority 2009, dated 2019).

The test system of one experiment is ATP Citrate Lyase (ACL). The experiment is described as follows: Western blot, ATP Citrate Lyase levels. The class given is cell-based, human. The conditions noted are these: for ATP Citrate Lysase as % of CTRL, Normalized Intensity: 48 h. Here is the method: After transfer each of the blots was placed in between 2 Whatman Filter papers and dried for 15-20 minutes. After drying the blots were labeled with the date, the type of samples and either blot 1 or blot 2 using a HB pencil. The molecular weight markers were outlined with the pencil and with single lines for the blue and a doublet for the colored markers. The blots were activated with methanol for 5 seconds, washed with water for 5 minutes, and TBST for 15 minutes. The blots were blocked for 1 hour with 5% blocking reagent in TBS-T at room temperature and then washed 3 times with TBS-T (1×-15′; 2×5′ each). Blot 1 was probed with the primary antibody for IDH1 (Cell Signaling #3997) in TBST with 5% BSA (at 1:1000 dilutions) and blot 2 with the rabbit polyclonal antibody for ATP Citrate Lyase in 5% BSA (Cell Signaling #4332) at 1:1000 dilution by incubation overnight at 4 deg C. with shaking. After the overnight incubation with primary antibodies, the blots were washed 3 times with TBS-T (1×-15′; 2×5′ each) and probed with the secondary antibody (antirabbit; 1:10,000 dilution) for 1 h on the orbital tilting shaker at room temperature. After 1 h of incubation with secondary antibodies, the blots were washed 3 times with TBS-T (1×-15′; 2×5′ each) and then incubated with ECF reagent for 5 mins and then each blot scanned with 5100 Fuji Laser scanner at 25 uM resolution, 16 bit, green laser, at 400V and at 500 V.
The Isocitrate dehydrogenase blot was stripped by incubating for 30 minutes with methanol, followed by two 10 minute washes with TBS-T, then 30 minutes of incubation with stripping buffer at 50 deg C., and followed by two washes with 100 ml or more of TBS-T for 30′ each. The blot was scanned in laser scanner to check for complete stripping. The blot was activated with methanol for 5 seconds, washed with water for 5 minutes, and TBST for 15 minutes. The blot was blocked for 1 hour with 5% blocking reagent in TBS-T at room temperature and then washed 3 times with TBS-T (1×-15′; 2×5′ each). This was then probed with the rabbit polyclonal antibody for ATP Citrate Lyase in 5% BSA (Cell Signaling #4332) at 1:1000 dilution overnight at 4 deg C. with shaking. After the overnight incubation with primary antibody for ATP Citrate Lyase, the membrane was washed 3 times with TBS-T (1×-15′; 2×5′ each) and probed with the secondary antibody (antirabbit; 1:10,000 dilution) for 1 h on the orbital tilting shaker at room temperature. After 1 h of incubation with secondary antibodies, the blot was washed 3 times with TBS-T (1×-15′; 2×5′ each) and then incubated with ECF reagent for 5 minutes and then each blot scanned with 5100 Fuji Laser scanner at 25 uM resolution, 16 bit, green laser, at 400V and at 500 V.
The levels of IDH1, ATP citrate lyase and actin levels were determined by probing the blots with primary antibodies for IDH1, ATP citrate lyase and actin, essentially as described above.
(In general: A western blot detects proteins with antibodies after separation by electrophoresis.)

Another experiment deals with SCC cells. The experiment is described as follows: Real-time PCR Apoptosis Array. Type of experiment: cell-based. The source says: The control cells were untreated cells.
RNA was quantified by measuring Optical Density at 260 nm.
A general note: In qPCR the cycle at which signal appears reflects the starting amount.

Experiment [1] deals with HepG2 (liver cancer) cells. In words: PCR Diabetes Array. Type of experiment: cell-based. The settings on record: 100 μM Q10, 48 hours. Here is the method:
The treatment was initiated on 1×10^5 cells per well, following the procedure utilized in the PaCa2 cells (above, Examples 9-11). However, the total amount of RNA that was extracted from these samples was lower than expected. Reverse transcription is normally done using 1 μg total RNA (determined by measurement at 260 nm). The maximum volume that can be used per reverse transcription is 8 μl.

Another experiment concerns SKMEL-28 cells. In words: 2-D gel electrophoresis proteomic analysis. The class given is cell-based. Here is the method: For isolation of proteins, cells were washed three times with 5 mL of ice cold PBS at a pH of 7.4. The cells were then scraped in 3 mL of PBS, pelleted by centrifuge, and re-suspended in a lysis buffer at pH 7.4 (80 mM TRIS-HCl, 1% SDS, with protease and phosphotase inhibitors). Protein concentrations were quantified using the BCA method.
The gels were run in duplicate.
The first experimental set processed and evaluated by Western blot and 2-D gel electrophoresis was the skin cancer cell line SKMEL-28.
A comparative analysis of 943 spots across all twenty-four gels was performed, comparing the control sample against all of the treated samples. The analysis included the identification of spot changes over the time course due to increase, decrease, or post-translational modification.
The analysis found thirty-two statistically significant differential spot changes. […] The characterized peptides were searched against protein databases with Mascot and MSRAT software analysis to identify the protein (Table 2).

For the molecule `COC1=C(OC)C(=O)C(C/C=C(\C)CC/C=C(\C)CC/C=C(\C)CC/C=C(\C)CC/C=C(\C)CC/C=C(\C)CC/C=C(\C)CC/C=C(\C)CC/C=C(\C)CCC=C(C)C)=C(C)C1=O` [Q10, Coenzyme Q10], the “ATP Citrate Lysase as % of CTRL, Normalized Intensity” value in the experiment on ATP Citrate Lyase (ACL) (HepG2, 5g glucose, amount 50) is reported as 0.85 % of CTRL; in the experiment on ATP Citrate Lyase (ACL) (HepG2, 5g glucose, amount 100), 0.79 % of CTRL; in the experiment with ATP Citrate Lyase (ACL) (HepG2, 22G glucose, amount 100), 2.09 % of CTRL; in the experiment with ATP Citrate Lyase (ACL) (PACA2, 5g glucose, amount 50), 0.68 % of CTRL; in the experiment on ATP Citrate Lyase (ACL) (PACA2, 5g glucose, amount 100) it was 0.42 % of CTRL; in the experiment on ATP Citrate Lyase (ACL) (PACA2, 22G glucose, amount 50), 1.12 % of CTRL. In the experiment on ATP Citrate Lyase (ACL) (cancer cells), the “expression of ACL” value is given as “dose-dependent decrease”. The “Regulation (mRNA)” value is “Down regulated at 6 hours” in the experiment with SCC cells (100 μM Q10, at 6 hours); “Up regulated at 24 hours” in the experiment on SCC cells (100 μM Q10, at 24 hours, BAX mRNA); “Down regulated at 24 hours” in the experiment with SCC cells (100 μM Q10, at 24 hours, BNIP3 mRNA). Besides, the “PPARGCIA mRNA” value in experiment [1] is “normalized or were slightly upregulated”. Besides, the “Expression (2D spot)” value is reported as “down” in the experiment with SKMEL-28 cells (3 hr, 50 uM Q10); “down” in the experiment on SKMEL-28 cells (3 hr, 100 uM Q10); “up” in the experiment on SKMEL-28 cells (6 hr, 50 uM Q10, protein EIF6); “down” with SKMEL-28 cells (6 hr, 50 uM Q10, protein LMNB1); “down” in the experiment with SKMEL-28 cells (6 hr, 100 uM Q10, protein EIF6); “up” with SKMEL-28 cells (6 hr, 100 uM Q10, protein VIM). In addition, the “Expression (2D spot)” value with SKMEL-28 cells (12 hr, 50 uM Q10, protein LGALS1) is “down”; in the experiment with SKMEL-28 cells (12 hr, 50 uM Q10, protein PDCD6IP) it was “up”; in the experiment on SKMEL-28 cells (12 hr, 100 uM Q10), “up”; in the experiment with SKMEL-28 cells (24 hr, 50 uM Q10) it was “down”.
